Assay results published in ChEMBL document CHEMBL4825684, “Design, synthesis and biological evaluation of N-anthraniloyl tryptamine derivatives as pleiotropic molecules for the therapy of malignant glioma” (Eur J Med Chem, 2021).
The source made the active and inactive calls. No cut-off for these calls is given here.

Legend:
U-87 MG [1] = assay: Induction of apoptosis in human U-87 MG cells assessed as increase in ROS generation at 1 to 4 uM incubated for 48 hrs by Western blot analysis relative to control; type: functional, cell-based; details: U-87MG ATCC, dose 1-4 µM
[2] = target: Tyrosine-protein kinase JAK2 (Homo sapiens) (UniProt O60674); assay: Inhibition JAK2 phosphorylation in human U-251 cells incubated up to 8 hrs by Western blot analysis; type: cell-based; details: time hrs <=8
Chain of Tyrosine-protein kinase JAK2 (Homo sapiens) (O60674 whole entry): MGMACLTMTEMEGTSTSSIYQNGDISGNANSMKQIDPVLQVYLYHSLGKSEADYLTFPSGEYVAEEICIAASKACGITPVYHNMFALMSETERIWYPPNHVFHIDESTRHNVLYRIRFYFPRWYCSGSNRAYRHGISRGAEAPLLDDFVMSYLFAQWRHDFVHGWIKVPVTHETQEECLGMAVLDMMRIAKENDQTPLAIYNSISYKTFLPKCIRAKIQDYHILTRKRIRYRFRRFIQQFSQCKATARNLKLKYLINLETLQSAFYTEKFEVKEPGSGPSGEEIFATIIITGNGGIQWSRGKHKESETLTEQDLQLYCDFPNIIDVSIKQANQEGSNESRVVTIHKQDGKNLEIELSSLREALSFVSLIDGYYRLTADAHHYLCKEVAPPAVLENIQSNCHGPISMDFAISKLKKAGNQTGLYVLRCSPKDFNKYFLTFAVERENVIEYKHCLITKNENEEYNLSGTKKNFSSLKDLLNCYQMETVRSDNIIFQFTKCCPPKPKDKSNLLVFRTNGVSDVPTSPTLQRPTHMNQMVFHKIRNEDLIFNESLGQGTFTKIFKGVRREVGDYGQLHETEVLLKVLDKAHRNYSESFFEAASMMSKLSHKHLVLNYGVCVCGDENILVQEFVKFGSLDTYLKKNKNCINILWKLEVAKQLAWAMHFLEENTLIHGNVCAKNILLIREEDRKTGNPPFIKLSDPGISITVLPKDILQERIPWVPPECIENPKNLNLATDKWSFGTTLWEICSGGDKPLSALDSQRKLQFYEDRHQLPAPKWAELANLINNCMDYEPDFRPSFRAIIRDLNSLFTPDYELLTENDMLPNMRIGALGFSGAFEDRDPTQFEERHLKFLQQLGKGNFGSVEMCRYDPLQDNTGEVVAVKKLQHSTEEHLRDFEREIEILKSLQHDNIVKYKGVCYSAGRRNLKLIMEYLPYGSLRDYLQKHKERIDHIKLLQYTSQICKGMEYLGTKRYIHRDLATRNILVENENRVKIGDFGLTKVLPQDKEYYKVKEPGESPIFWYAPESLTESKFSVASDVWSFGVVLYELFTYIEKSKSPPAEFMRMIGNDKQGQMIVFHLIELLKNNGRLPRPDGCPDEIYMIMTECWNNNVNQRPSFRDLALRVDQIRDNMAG

U-251 [3] = assay: Induction of apoptosis in human U-251 cells assessed as viable cells at 2 uM incubated for 48 hrs by […] double staining based flow cytometry assay (reference value: 96.6%); type: functional; details: read-out: Activity
C6 [4] = assay: Antitumor activity against rat C6 cells inoculated orthotopic Sprague-Dawley rat model assessed as tumor necrosis at 50 mg/kg, ip twice a day administered for 13 days of tumor implantation by hematoxylin-eosin staining analysis; type: functional, organism-based; details: time 13.0 day
U-251 [5] = assay: Cell cycle arrest in human U-251 cells assessed as accumulation at G2/M phase at 8 uM incubated for 48 hrs by PI staining based flow cytometry assay (reference value: 11.9%); type: functional
[6] = target: Signal transducer and activator of transcription 3 (Homo sapiens) (UniProt P40763); assay: Inhibition of STAT3 nuclear translocation in human U251 cells incubated for 24 hrs by Hoechst staining based fluorescence confocal imaging analysis; type: cell-based; details: U-251
Chain of Signal transducer and activator of transcription 3 (Homo sapiens) (P40763 whole entry): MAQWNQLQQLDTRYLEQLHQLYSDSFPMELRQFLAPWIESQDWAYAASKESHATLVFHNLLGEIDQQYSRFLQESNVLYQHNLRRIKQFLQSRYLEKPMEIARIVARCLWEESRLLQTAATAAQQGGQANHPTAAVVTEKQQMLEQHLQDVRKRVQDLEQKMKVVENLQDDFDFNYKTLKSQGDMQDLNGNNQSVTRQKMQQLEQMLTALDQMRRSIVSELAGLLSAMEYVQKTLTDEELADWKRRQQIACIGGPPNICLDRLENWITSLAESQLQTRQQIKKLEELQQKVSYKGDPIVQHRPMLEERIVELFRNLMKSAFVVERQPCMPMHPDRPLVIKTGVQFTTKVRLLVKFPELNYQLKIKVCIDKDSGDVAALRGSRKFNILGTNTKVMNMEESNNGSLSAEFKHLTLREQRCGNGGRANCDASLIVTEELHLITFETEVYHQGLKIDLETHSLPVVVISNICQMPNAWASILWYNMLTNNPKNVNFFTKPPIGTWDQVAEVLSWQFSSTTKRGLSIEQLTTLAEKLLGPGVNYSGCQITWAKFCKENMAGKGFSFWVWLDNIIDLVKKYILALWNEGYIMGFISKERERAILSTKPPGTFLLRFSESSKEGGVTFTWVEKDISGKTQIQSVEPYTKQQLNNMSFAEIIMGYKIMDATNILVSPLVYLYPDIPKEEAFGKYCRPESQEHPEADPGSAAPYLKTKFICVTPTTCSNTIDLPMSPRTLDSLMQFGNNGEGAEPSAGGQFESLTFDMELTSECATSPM

U-87 MG [7] = assay: Anti-invasion activity against human U-87 MG cells assessed as inhibition of invasion incubated for 24 hrs by matrigel trans well plate assay; type: functional, cell-based; details: U-87MG ATCC
U-251 [8] = assay: Induction of apoptosis in human U-251 cells assessed as necrotic cells at 4 uM incubated for 48 hrs by […] double staining based flow cytometry assay (reference value: 1.32%); type: functional
[9] = Toxicity in rat C6 cells inoculated orthotopic Sprague-Dawley rat model assessed as body weight change at 50 mg/kg, ip twice a day administered for 13 days of tumor implantation; type: organism-based; details: in vivo, 312 h, time 13 day
U-251 [10] = assay: Antiproliferative activity against human U-251 cells assessed as colony formation ratio at 4 uM measured after 24 hrs by plate clone formation assay relative to control; type: functional
U-251 [11] = assay: Cytotoxicity against human U-251 cells assessed as cell viability at 4 uM measured up to 24 hrs; type: functional; details: U-251, 24 h, time hrs <=24, read-out: Activity
U-87 MG [12] = assay: Antimigratory activity against human U-87 MG cells assessed as inhibition of migration incubated for 24 hrs by matrigel trans well plate assay; type: functional, cell-based; details: U-87MG ATCC
U-87 MG [13] = assay: Cytotoxicity against human U-87 MG cells assessed as cell viability at 4 uM measured up to 24 hrs; type: functional, U-87MG ATCC; details: time hrs <=24, read-out: Activity
[14] = target: T1, Prostaglandin G/H synthase 2 (Homo sapiens, UniProt P35354); assay: Inhibition of human COX2 assessed as fluorescence by microplate reader
T1 sequence (P35354 whole entry): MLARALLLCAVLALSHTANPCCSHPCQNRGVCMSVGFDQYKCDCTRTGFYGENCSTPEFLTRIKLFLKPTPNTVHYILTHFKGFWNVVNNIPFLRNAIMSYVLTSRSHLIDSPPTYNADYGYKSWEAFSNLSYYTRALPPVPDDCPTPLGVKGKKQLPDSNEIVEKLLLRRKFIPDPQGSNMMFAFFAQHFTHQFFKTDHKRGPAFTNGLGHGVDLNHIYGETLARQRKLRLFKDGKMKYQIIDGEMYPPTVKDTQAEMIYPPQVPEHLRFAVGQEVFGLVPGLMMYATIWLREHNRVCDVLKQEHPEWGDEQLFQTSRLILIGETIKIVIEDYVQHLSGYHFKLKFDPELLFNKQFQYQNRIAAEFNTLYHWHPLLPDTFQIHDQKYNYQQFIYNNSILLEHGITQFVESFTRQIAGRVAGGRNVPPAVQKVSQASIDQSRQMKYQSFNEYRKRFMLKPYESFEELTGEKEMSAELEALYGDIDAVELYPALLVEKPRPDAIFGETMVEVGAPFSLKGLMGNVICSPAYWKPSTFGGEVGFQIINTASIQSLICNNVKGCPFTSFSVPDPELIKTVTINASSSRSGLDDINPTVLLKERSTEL

U-87 MG [15] = assay: Induction of apoptosis in human U-87 MG cells assessed as decrease in Bcl2/Bax ratio at 2 to 4 uM incubated for 48 hrs by Western blot analysis relative to control; type: functional, cell-based; details: U-87MG ATCC, dose 2-4 µM
U-251 [16] = assay: Induction of apoptosis in human U-251 cells assessed as early apoptotic cells at 2 uM incubated for 48 hrs by […] double staining based flow cytometry assay (reference value: 0.73%); type: functional
U-87 MG [17] = assay: Induction of apoptosis in human U-87 MG cells assessed as necrotic cells at 2 uM incubated for 48 hrs by […] double staining based flow cytometry assay (reference value: 0.91%); type: functional, U-87MG ATCC
[18] = Toxicity in rat C6 cells inoculated orthotopic Sprague-Dawley rat model assessed as changes in blood at 50 mg/kg, ip twice a day administered for 13 days of tumor implantation by routine blood test; type: organism-based; details: in vivo, 312 h, time 13 day
C6 [19] = assay: Anxiolytic activity in rat C6 cells inoculated orthotopic Sprague-Dawley rat model assessed as suppression of MMP9 expression in tumor tissue at 50 mg/kg, ip twice a day administered for 13 days of tumor implantation by immunohistochemical staining analysis; type: functional, organism-based; details: time 13.0 day
U-87 MG [20] = assay: Induction of apoptosis in human U-87 MG cells assessed as viable cells at 8 uM incubated for 48 hrs by Annexin VIM double staining based flow cytometry assay (reference value: 97.8%); type: functional, U-87MG ATCC; details: read-out: Activity
U-87 MG [21] = assay: Induction of apoptosis in human U-87 MG cells assessed as necrotic cells at 8 uM incubated for 48 hrs by Annexin VIM double staining based flow cytometry assay (reference value: 0.91%); type: functional, U-87MG ATCC
C6 [22] = assay: Antitumor activity against rat C6 cells inoculated orthotopic Sprague-Dawley rat model assessed as increase in E-cadherin in tumor tissue at 50 mg/kg, ip twice a day treated 3 days after tumor cell injection measured for 13 days after tumor implantation by Western blot analysis; type: functional, organism-based; details: time 3.0 day
U-251 [23] = assay: Induction of apoptosis in human U-251 cells assessed as increase in cytochrome c release at 1 to 4 uM incubated for 48 hrs by Western blot analysis relative to control; type: functional, cell-based; details: dose 1-4 µM
U-87 MG [24] = assay: Antiproliferative activity against human U-87 MG cells assessed as growth inhibition incubated for 72 hrs by CCK-8 assay; type: functional, cell-based, U-87MG ATCC
U-87 MG [25] = assay: Antiproliferative activity against human U-87 MG cells assessed as decrease in proliferation at 4 uM measured after 24 hrs by EdU assay relative to control; type: functional, cell-based; details: U-87MG ATCC
U-87MG ATCC = assay: Reduction in MMP9 expression in human U-87 MG cells incubated for 24 hrs by Western blot analysis; type: functional, cell-based; details: dose 1-4 µM
U-251 [26] = assay: Induction of apoptosis in human U-251 cells assessed as late apoptotic cells at 2 uM incubated for 48 hrs by […] double staining based flow cytometry assay (reference value: 1.39%); type: functional
[27] = AUC (0 to t) in Sprague-Dawley rat at 60 mg/kg, ip measured up to 24 hrs by LC-MS analysis; type: ADME, organism-based; parameters: route intraperitoneal, dose 60 mg/kg, time <=24; details: in vivo
U-87 MG [28] = assay: Induction of apoptosis in human U-87 MG cells assessed as early apoptotic cells at 4 uM incubated for 48 hrs by […] double staining based flow cytometry assay (reference value: 0.63%); type: functional, U-87MG ATCC

Q: With `COc1cc(Nc2ccccc2C(=O)NCCc2c[nH]c3ccccc23)cc(OC)c1OC` as the compound, how does the Activity (U-87 MG [1]) read?
A: The Activity was “Active”.

Q: What about the inhibition [2] of the same compound?
A: The inhibition was “Active”.

Q: What about the viability at 2 µM (U-251 [3]) of the same compound?
A: The viability at 2 µM was 73.4%.

Q: And the Activity (C6 [4])?
A: The Activity was “Active”.

Q: What about the Activity (U-251 [5]) of the same compound?
A: The Activity was 63.7%.

Q: And the inhibition [6]?
A: The inhibition was “Active”.

Q: What about the Activity (U-87 MG [7]) of the same compound?
A: The Activity was “Active”.

Q: What about the Activity (U-251 [8]) of the same compound?
A: Its Activity is 4.78%.

Q: And the Activity [9]?
A: Its Activity is “Non-Toxic”.

Q: And the Activity (U-251 [10])?
A: Its Activity is 5.33%.

Q: And the viability at 4 µM (U-251 [11])?
A: The viability at 4 µM was 80%.

Q: And the Activity (U-87 MG [12])?
A: The Activity was “Active”.

Q: What about the viability at 4 µM (U-87 MG [13]) of the same compound?
A: Its viability at 4 µM is 80%.

Q: And the IC50 [14]?
A: The IC50 was 8.29 µM.

Q: And the Activity (U-87 MG [15])?
A: Its Activity is “Active”.

Q: What about the Activity (U-251 [16]) of the same compound?
A: Its Activity is 4.93%.

Q: And the Activity (U-87 MG [17])?
A: Its Activity is 1.23%.

Q: What about the Activity [18] of the same compound?
A: The Activity was “Non-Toxic”.

Q: What about the Activity (C6 [19]) of the same compound?
A: Its Activity is “Active”.

Q: And the viability at 8 µM (U-87 MG [20])?
A: Its viability at 8 µM is 77.7%.

Q: And the Activity (U-87 MG [21])?
A: Its Activity is 1.1%.

Q: What about the Activity (C6 [22]) of the same compound?
A: Its Activity is “Active”.

Q: And the Activity (U-251 [23])?
A: The Activity was “Active”.

Q: What about the IC50 (U-87 MG [24]) of the same compound?
A: Its IC50 is 4.78 µM.

Q: What about the Activity (U-87 MG [25]) of the same compound?
A: The Activity was “Active”.

Q: And the Activity (U-87MG ATCC)?
A: The Activity was “Dose-Dependent Effect”.

Q: And the Activity (U-251 [26])?
A: Its Activity is 17.4%.

Q: What about the AUC(0-t) at 24 h [27] of the same compound?
A: The AUC(0-t) at 24 h was 7330 ng·h/mL.

Q: What about the Activity (U-87 MG [28]) of the same compound?
A: Its Activity is 6.09%.
